Source: patent US4374843A, “2-Guanidino-4-heteroarylthiazoles” (Pfizer Inc., priority 1981, dated 1983)
Where a name gives a salt, the structure may show the parent alone.

How the values were obtained:
Heidenhain pouch dogs = experiment: Gastric acid antisecretory activity in pentagastrin-stimulated Heidenhain pouch dogs; format: in vivo, dog; details: Canis lupus familiaris, iv, 1.5 h; 1 mg/kg intravenously, 90 min after start of pentagastrin infusion; lowest acid output after drug vs mean acid output immediately before drug; conscious fasted dogs; read-out: inhibited gastric acid secretion
Protocol: The gastric acid antisecretory activity of compounds of the present invention was determined in overnight fasted, conscious Heidenhain pouch dogs. Pentagastrin (Pentavlon-Ayerst was used to stimulate acid output by continuous infusion into a superficial leg vein at doses earlier determined to stimulate near maximal acid output from the gastric pouch. Gastric juice was collected at 30 minute intervals following the start of a pentagastrin infusion and measured to the nearest 0.1 ml. Ten collections were taken for each dog during an experiment. Acid concentration was determined by titrating 1.0 ml of gastric juice to pH 7.4 with 0.1 N sodium hydroxide using an Autoburette and a glass electrode pH meter (Radiometer).
Drug or vehicle was given intraveneously 90 minutes following the start of the pentagastrin infusion, at a dose of 1 mg/kg. Gastric acid antisecretory effects were calculated by comparing the lowest acid output after drug administration with the mean acid output immediately before drug.

H2 -receptor = target: T1, H2 -receptor (Cavia porcellus, UniProt P47747); experiment: Histamine-H2 antagonist activity in isolated guinea pig right atria; format: cell-based; details: histamine dose-response curve in presence and absence of antagonist, 32°; for Kb: Krebs-Henseleit buffer pH 7.4, read-out: pA2 (apparent dissociation constant of the H2-receptor antagonist) (converted)
T1 construct: the heart removed and the right atria dissected free; from tissue; host or cells: isolated guinea pig right atria
Protocol: The histamine-H2 antagonist activity of compounds of the present invention was determined by the following procedure:
Guinea pigs are killed rapidly with a blow to the head, the heart removed and the right atria dissected free. Atria are suspended, isometrically, in a temperature-controlled (32°±2°) tissue bath (10 ml containing oxygenated (95% O2; 5% CO2) Krebs-Henseleit buffer (pH 7.4) and are allowed to stabilize approximately one hour during which time the tissue bath is flushed several times. Individual atrial contractions are followed with a force-displacement transducer connected to a cardiotachometer and Grass polygraph recorder. After obtaining a dose-response curve to histamine, the bath containing each atrium is flushed several times with fresh buffer and the atria re-equilibrated to basal rates. Following the return to basal rate, test compounds are added at selected final concentrations and the histamine dose-response curve is again determined in the presence of antagonist. Results are expressed as dose-ratios, the ratio of histamine concentrations required to produce one-half of maximal stimulation in the presence and absence of antagonist, and the apparent dissociation constant of the H2 -receptor antagonist pA2, is determined.

T1 sequence (P47747 whole entry): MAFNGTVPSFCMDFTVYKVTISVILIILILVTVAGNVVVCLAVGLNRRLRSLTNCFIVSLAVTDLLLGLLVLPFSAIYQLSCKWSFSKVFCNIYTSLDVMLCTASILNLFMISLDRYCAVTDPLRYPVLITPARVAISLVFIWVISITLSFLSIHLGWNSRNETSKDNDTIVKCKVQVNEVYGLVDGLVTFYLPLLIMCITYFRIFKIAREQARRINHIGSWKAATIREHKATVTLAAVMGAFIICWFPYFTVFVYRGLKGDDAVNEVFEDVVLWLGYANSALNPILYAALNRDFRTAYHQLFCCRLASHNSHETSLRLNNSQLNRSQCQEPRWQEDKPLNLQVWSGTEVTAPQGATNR

| Kb (H2 -receptor) [µM] | pA2 (apparent dissociation constant of the H2-receptor antagonist) (H2 -receptor; Krebs-Henseleit buffer pH 7.4) | SMILES | inhibition at 1 mg/kg (Heidenhain pouch dogs) [%] |
| --- | --- | --- | --- |
| < 2 | – | N=C(N)Nc1nc(-c2cscn2)cs1 [Example 5, 2-Guanidino-4-(4-thiazolyl)thiazole] | ≥ 15 |
| < 2 | – | N=C(N)Nc1nc(-c2c[nH]c(NCCc3ccccc3)n2)cs1 [Example 27, 2-Guanidino-4-(2-N-phenethylamino-4-imidazoyl)thiazole dihydrochloride] | ≥ 15 |
| < 2 | – | CCCCNc1nc(-c2csc(NC(=N)N)n2)c[nH]1 [Example 25, 2-Guanidino-4-(2-N-n-butylamino-4-imidazoyl)thiazole dihydrochloride] | ≥ 15 |
| < 2 | – | Cc1ncc(-c2csc(N=C(N)N)n2)[nH]1 [Example 37, 2-Guanidino-4-(2-methyl-4-imidazolyl)thiazole] | ≥ 15 |
| < 2 | – | CCCNc1nc(-c2csc(NC(=N)N)n2)c[nH]1 [Example 23, 2-(Guanidino-4-(2-N-n-propylamino-4-imidazoyl)thiazoledihydrochloride] | ≥ 15 |
| < 2 | – | N=C(N)Nc1nc(-c2c[nH]c(Nc3ccccc3)n2)cs1 [Example 46, 2-Guanidino-4-(2-N-phenylamino-4-imidazolyl)thiazole] | – |
| < 2 | – | CCCc1n[nH]c(-c2csc(NC(=N)N)n2)n1 [Example 15, 2-Guanidino-4-(3-propyl-5-1,2,4-triazolyl)thiazole hemihydrate] | ≥ 15 |
| – | greater than 5.7 | Cc1nc(C)c(-c2csc(NC(=N)N)n2)[nH]1 [Example 45, 2-Guanidino-4-(2,4-dimethyl-4-imidazolyl)thiazole hydrobromide hemihydrate] | ≥ 15 |
| < 2 | – | CC(C)Nc1nc(-c2csc(NC(=N)N)n2)c[nH]1 [Example 24, 2-Guanidino-4-(2-N-i-propylamino-4-imidazoyl)thiazole dihydrochloride] | ≥ 15 |
| < 2 | – | N=C(N)Nc1nc(-c2c[nH]c(CO)n2)cs1 [Example 50, 2-Guanidino-4-(2-hydroxymethyl-4-imidazolyl)thiazole hydrobromide] | ≥ 15 |
| – | – | N=C(N)Nc1nc(-c2c[nH]cn2)cs1 [Example 31, 2-Guanidino-4-(4-imidazoyl)thiazole hydrobromide] | ≥ 15 |
| – | – | N=C(N)Nc1nc(-c2c[nH]c(N)n2)cs1 [Example 20, 2-Guanidino-4-(2-amino-4-imidazolyl)thiazole] | ≥ 15 |
| < 2 | – | CCNc1nc(-c2csc(NC(=N)N)n2)c[nH]1 [Example 22, 2-Guanidino-4-(2-N-ethylamino-4-imidazoyl)thiazole dihydrochloride] | ≥ 15 |
| < 2 | – | CCc1n[nH]c(-c2csc(NC(=N)N)n2)n1 [Example 17, 2-Guanidino-4-(3-ethyl-5-1,24-triazolyl)thiazole] | ≥ 15 |
| < 2 | – | CNc1nc(-c2csc(NC(=N)N)n2)c[nH]1 [Example 21, 2-Guanidino-4-(2-N-methylamino-4-imidazoyl)thiazole dihydrochloride] | ≥ 15 |
| < 2 | – | CNc1nc(-c2csc(NC(=N)N)n2)cs1 [Example 6, 2-Guanidino-4-(2-N-methylamino-4-thiazoyl)thiazole] | ≥ 15 |
| < 2 | – | N=C(N)Nc1nc(-c2c[nH]c(NCc3ccccc3)n2)cs1 [Example 26, 2-Guanidino-4-(2-N-benzylamino-4-imidazoyl)thiazole dihydrochloride] | ≥ 15 |
| < 2 | – | Cc1nc[nH]c1-c1csc(NC(=N)N)n1 [Example 41, 2-Guanidino-4-(4-methyl-5-imidazolyl)thiazole hydrobromide] | ≥ 15 |
| – | – | Cc1n[nH]c(-c2csc(NC(=N)N)n2)n1 [Example 13, 2-Guanidino-4-(3-methyl-5-1,2,4-triazolyl)thiazole hemihydrate] | ≥ 15 |
| – | – | N=C(N)Nc1nc(-c2nc(N)n[nH]2)cs1 [Example 11, 2-Guanidino-4-(3-amino-5-1,2,4-triazolyl)thiazole] | ≥ 15 |
| < 2 | – | CC(=O)Nc1nc(-c2csc(NC(=N)N)n2)c[nH]1 [Example 28, 2-Guanidino-4-(2-N-acetamido-4-imidazoyl)thiazole] | ≥ 15 |
| < 2 | – | N=C(N)Nc1nc(-c2csc(N)n2)cs1 [Example 4, 2-Guanidino-4-(2-amino-4-thiazolyl)thiazole dihydrobromide] | ≥ 15 |
| < 2 | – | CC(=O)Nc1nc(-c2csc(NC(=N)N)n2)cs1 [Example 7, 2-Guanidino-4-(2-N-acetylamino-4-thiazoyl)thiazole] | ≥ 15 |
